Patent US9296762B2, “Complexing agents and corresponding lanthanide complexes” (CISBIO BIOASSAYS, priority 2011, dated 2016)

Key:
[1] = UV spectra of the chromophores, maximum absorption wavelength; type: physicochemical; details: UV spectrum of chromophore 78, carboxylate function protected in ester form
Description: Several compounds according to the invention were prepared and their photophysical properties, in particular the wavelengths corresponding to their maximum absorption peaks (λmax), were determined. The structures of these compounds and the results obtained are described in table 2.
The chromophores (similar to compound 78, carboxylate function protected in ester form) were synthesized according to the protocol described in scheme 13, using one of the two approaches “A” or “B” as described in this scheme (including that for the chromophores comprising naphthyl, thiolanyl, imidazolyl and anthracenyl rings or heterocycles). For each chromophore, the UV spectra were recorded and the maximum absorption wavelengths (λmax) were determined and reported in table 2.

[2] = Photophysical properties of symmetrical europium TACN complexes 81; type: physicochemical; details: symmetrical europium TACN complex 81 made of three identical chromophores
Description: For certain chromophores, europium complexes according to the invention in which the three chromophores are identical (symmetrical complexes) were prepared using the protocol described in scheme 14, with a TACN macrocycle (the synthetic yields for the intermediate compounds 79, 80 and 81 of scheme 14 were reported in table 2). The photophysical properties of these europium complexes were determined and also reported in this table.

| Chromophore 78 λmax (nm) [1] [nm] | Complex 81 Quantic yield (%) [2] [%] | Complex 81 λmax (nm) [2] [nm] | SMILES |
| --- | --- | --- | --- |
| 319 | 11 | 336 | COC(=O)c1cc(C#Cc2cc(OC)c(C)c(OC)c2)cc(CO)n1 |
| 335 | – | – | COC(=O)c1cc(C#Cc2ccc3cc(OC)ccc3c2)cc(CO)n1 |
| 326 | – | – | COC(=O)c1cc(C#Cc2c3ccccc3cc3ccccc23)cc(CO)n1 |
| 291 | – | – | COC(=O)c1cc(C#Cc2ccccc2)cc(CO)n1 [reference compound] |
| 332 | – | – | COC(=O)c1cc(C#Cc2ccc(SC)cc2)cc(CO)n1 |
| 322 | – | – | COC(=O)c1cc(C#Cc2ccc(NC(C)=O)cc2C)cc(CO)n1 |
| 315 | 54 | 333 | COC(=O)c1cc(C#Cc2cncn2C)cc(CO)n1 |
| 324 | – | – | COC(=O)c1cc(C#Cc2ccc(O)cc2)cc(CO)n1 |
| 318 | – | – | COC(=O)c1cc(C#Cc2ccc(-c3ccccc3)cc2)cc(CO)n1 |
| 324 | – | – | COC(=O)c1cc(C#Cc2ccc(NC(=O)c3cc(OC)c(OC)c(OC)c3)cc2)cc(CO)n1 |
| 319 | – | – | COC(=O)c1cc(C#Cc2ccc(OC)cc2OC)cc(CO)n1 |
| 329 | – | – | COC(=O)c1cc(C#Cc2cccc3ccccc23)cc(CO)n1 |
| 318 | – | – | COC(=O)c1cc(C#Cc2ccc(OCC(=O)OC(C)(C)C)cc2)cc(CO)n1 |
| 326 | 76 | 343 | COC(=O)c1cc(C#Cc2ccc(OC)cc2C)cc(CO)n1 |
| 323 | 46 | 336 | COC(=O)c1cc(C#Cc2ccccc2OC)cc(CO)n1 |
| 326 | – | – | COC(=O)c1cc(C#Cc2ccc(NC(=O)OC(C)(C)C)cc2)cc(CO)n1 |
| 315 | – | – | COC(=O)c1cc(C#Cc2ccc(Oc3ccccc3)cc2)cc(CO)n1 |
| 320 | 52 | 333 | COC(=O)c1cc(C#Cc2ccc(OC)cc2)cc(CO)n1 |
| 326 | 52 | 323 | COC(=O)c1cc(C#Cc2ccsc2)cc(CO)n1 |
| 323 | – | – | COC(=O)c1cc(C#Cc2ccc(NC(=O)c3ccccc3)cc2)cc(CO)n1 |
